{"source": "patent US9241991B2", "about": "“Agents, compositions, and methods for treating pruritus and related skin conditions” (The Brigham and Women's Hospital, Inc., priority 2010, dated 2016)", "key": {"TLR3 [1]": {"test_system": "TLR3", "experiment": "TLR3 protein and mRNA levels in DRGs after intrathecal TLR3 antisense ODNs (Western blotting, quantitative PCR)", "format": "in vivo", "conditions": "intrathecal AS-ODNs 10 μg daily for 5 days, adult WT mice; P<0.05", "procedure": "(§1) We injected pruritic agents intradermally in the nape of the neck (50 μl) or cheek (10 μl), respectively. We purchased histamine, compound 48/80, trypsin, chloroquine, serotonin, TLR3 agonist polyribo-inosinic/cytidylic acid (PIC), and complete Freund's adjuvant (CFA) from Sigma-Aldrich, histamine H1 receptor agonist histamine-trifluoromethyl-toluidine (HTMT), capsaicin, and the H4R-selective agonist 4-methylhistamine (4-MeHA) from Tocris, and endothelin-1 (ET-1) from ALEXIS Biochemicals. […] Antisense oligodeoxynucleotides (AS-ODN; 5′-[…]-3′; SEQ ID NO:1) targeting TLR3 and mismatch ODN (MM-ODN; 5′-[…]-3′; SEQ ID NO:2) were synthesized by Invitrogen according to the published sequences (2). AS-ODN (10 μg) or MM-ODN were intrathecally injected once a day for 5 days. To target DRG and spinal cord cells, TRIF inhibitor (10 μl) were delivered intrathecally into cerebral spinal fluid via a lumbar puncture. […]\nMice were terminally anesthetized with isoflurane and transcardially perfused with PBS, and the DRGs were rapidly removed and homogenized in a lysis buffer containing a cocktail of protease inhibitors and phosphatase inhibitors. The protein concentrations were determined by BCA Protein Assay (Pierce), and 30 μg of proteins were loaded for each lane and separated on SDS-PAGE gel (4-15%, Bio-Rad). […]"}, "TLR4": {"test_system": "TLR4", "experiment": "TLR4 expression in the DRG after intrathecal AS-ODNs (specificity)", "format": "in vivo, mice", "procedure": "We injected pruritic agents intradermally in the nape of the neck (50 μl) or cheek (10 μl), respectively. We purchased histamine, compound 48/80, trypsin, chloroquine, serotonin, TLR3 agonist polyribo-inosinic/cytidylic acid (PIC), and complete Freund's adjuvant (CFA) from Sigma-Aldrich, histamine H1 receptor agonist histamine-trifluoromethyl-toluidine (HTMT), capsaicin, and the H4R-selective agonist 4-methylhistamine (4-MeHA) from Tocris, and endothelin-1 (ET-1) from ALEXIS Biochemicals. […] Antisense oligodeoxynucleotides (AS-ODN; 5′-[…]-3′; SEQ ID NO:1) targeting TLR3 and mismatch ODN (MM-ODN; 5′-[…]-3′; SEQ ID NO:2) were synthesized by Invitrogen according to the published sequences (2). AS-ODN (10 μg) or MM-ODN were intrathecally injected once a day for 5 days. To target DRG and spinal cord cells, TRIF inhibitor (10 μl) were delivered intrathecally into cerebral spinal fluid via a lumbar puncture. A successful spinal puncture was evidenced by a brisk tail-flick after the needle entry into subarachnoid space (3). Most reagents were dissolved in sterile saline. Capsaicin was dissolved in 10% DMSO.\nWe collected back hairy skin and cervical DRGs from 4 pairs of WT and Tlr3^−/− mice and isolated total RNAs using RNeasy Plus Mini kit (Qiagen, Valencia, Calif.). […]"}, "TLR3 [2]": {"test_system": "TLR3", "experiment": "Compound 48/80- and chloroquine-induced scratching after intrathecal TLR3 AS-ODNs", "format": "in vivo", "conditions": "intrathecal AS-ODNs 10 μg daily for 5 days, adult mice; P<0.05", "procedure": "as §1\nMice were habituated to the testing environment daily for at least two days before analysis. <ice were shaved at the back of the neck the day before injection. […] We injected 50 μl of pruritic agent intradermally in the nape of the neck and counted the number of scratches every 5 min for 30 min after the injection. A scratch was counted when a mouse lifted its hindpaw to scratch the shaved region and returned the paw to the floor or to the mouth for licking. […]"}, "DRG neurons": {"test_system": "DRG neurons", "experiment": "Calcium imaging from cultured DRG neurons", "format": "cell-based", "conditions": "wild-type mice DRG neurons", "procedure": "DRGs from all spinal levels of 4-week old mice were collected in cold DH10 (90% DMEM/F-12, 10% FBS, 100 U/ml penicillin, and 100 μg/ml Streptomycin, Gibco) and treated with enzyme solution (5 mg/ml Dispase, 1 mg/ml Collagenase Type I in HPBS without Ca^++ and Mg^++, Gibco) at 37° C. Following trituration and centrifugation, cells were resuspended in DH10, plated on glass cover slips coated with poly-D-lysine (0.5 mg/ml, Stoughton, Mass.) and laminin (10 μg/ml, Invitrogen), cultured in an incubator ([…] and 5% CO2) at 37° C. and used within 24 hours. Neurons were loaded with Fura 2-acetomethoxy ester (Molecular Probes) for 30 min in the dark at room temperature. After washing, cells were imaged at 340 and 380 nm excitation to detect intracellular free calcium. To compare the response to histamine, chloroquine, and capsaicin between WT and Tlr3-deficient DRG neurons, calcium imaging assays were performed with an experimenter blind to genotype (n=3 per genotype), and the percentages of DRG neurons showing calcium responses were determined as we previously described (23)."}, "TRPV1 [3]": {"biological_target": "T1, TRPV1 (Mus musculus, UniProt Q704Y3)", "T1 sequence (Q704Y3 whole entry)": "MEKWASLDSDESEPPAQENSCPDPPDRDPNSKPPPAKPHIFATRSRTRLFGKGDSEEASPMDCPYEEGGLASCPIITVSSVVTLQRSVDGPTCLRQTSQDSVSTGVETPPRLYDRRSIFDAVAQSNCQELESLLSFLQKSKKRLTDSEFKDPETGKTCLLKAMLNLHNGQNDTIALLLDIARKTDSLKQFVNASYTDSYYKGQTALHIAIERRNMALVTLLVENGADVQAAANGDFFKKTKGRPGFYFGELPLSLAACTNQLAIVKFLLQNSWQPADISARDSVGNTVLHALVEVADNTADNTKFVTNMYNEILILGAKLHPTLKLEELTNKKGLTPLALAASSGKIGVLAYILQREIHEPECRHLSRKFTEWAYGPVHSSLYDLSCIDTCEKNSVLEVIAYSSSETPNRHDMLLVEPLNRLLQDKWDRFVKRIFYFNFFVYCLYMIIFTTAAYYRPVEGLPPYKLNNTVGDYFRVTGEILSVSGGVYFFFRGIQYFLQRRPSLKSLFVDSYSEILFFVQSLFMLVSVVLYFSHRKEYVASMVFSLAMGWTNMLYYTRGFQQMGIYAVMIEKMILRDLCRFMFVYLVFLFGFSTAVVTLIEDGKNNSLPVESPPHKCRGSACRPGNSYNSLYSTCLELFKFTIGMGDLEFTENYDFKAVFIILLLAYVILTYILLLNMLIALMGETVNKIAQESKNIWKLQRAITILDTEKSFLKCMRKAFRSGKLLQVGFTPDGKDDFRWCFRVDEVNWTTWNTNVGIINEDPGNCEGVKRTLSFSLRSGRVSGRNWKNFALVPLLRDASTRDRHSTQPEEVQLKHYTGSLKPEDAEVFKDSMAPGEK", "experiment": "Behavior after intrathecal injection of capsaicin", "format": "in vivo", "conditions": "WT mice"}, "TRPV1 [4]": {"biological_target": "T1, TRPV1", "experiment": "Patch clamp recording of sEPSCs in lamina II neurons of spinal cord slices, capsaicin", "format": "cell-based", "set-up": "central terminals of TRPV1-expressing nociceptors; from tissue; host or cells: mouse lumbar spinal cord slices (L4-L5); live mice (intrathecal capsaicin, resiniferatoxin pretreatment)", "conditions": "capsaicin 1 μM, WT mice spinal cord slices"}, "TLR3 [5]": {"biological_target": "T2, TLR3 (Mus musculus, UniProt Q99MB1)", "T2 sequence (Q99MB1 26-905)": "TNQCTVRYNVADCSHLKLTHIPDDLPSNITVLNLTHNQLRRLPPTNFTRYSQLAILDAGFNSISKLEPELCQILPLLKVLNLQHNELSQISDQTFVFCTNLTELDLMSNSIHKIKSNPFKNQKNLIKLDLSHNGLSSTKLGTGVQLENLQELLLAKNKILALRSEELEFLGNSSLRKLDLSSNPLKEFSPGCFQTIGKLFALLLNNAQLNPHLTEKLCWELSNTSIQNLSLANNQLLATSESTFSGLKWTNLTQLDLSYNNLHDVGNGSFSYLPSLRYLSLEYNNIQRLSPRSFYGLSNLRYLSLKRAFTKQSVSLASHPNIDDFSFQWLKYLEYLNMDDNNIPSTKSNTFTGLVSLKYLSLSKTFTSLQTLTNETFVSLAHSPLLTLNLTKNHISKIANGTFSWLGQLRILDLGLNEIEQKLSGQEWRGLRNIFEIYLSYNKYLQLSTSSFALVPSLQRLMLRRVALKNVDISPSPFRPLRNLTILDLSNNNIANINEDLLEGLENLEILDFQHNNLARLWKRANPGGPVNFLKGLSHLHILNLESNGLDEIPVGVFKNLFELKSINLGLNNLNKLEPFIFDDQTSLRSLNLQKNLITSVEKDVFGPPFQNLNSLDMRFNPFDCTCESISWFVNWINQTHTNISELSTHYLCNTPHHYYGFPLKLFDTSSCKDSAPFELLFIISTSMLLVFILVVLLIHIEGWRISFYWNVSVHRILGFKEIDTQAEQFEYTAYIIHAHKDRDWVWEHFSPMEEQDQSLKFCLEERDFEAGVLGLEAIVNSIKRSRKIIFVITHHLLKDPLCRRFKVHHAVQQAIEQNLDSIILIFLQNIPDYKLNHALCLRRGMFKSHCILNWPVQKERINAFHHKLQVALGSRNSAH", "experiment": "Patch-clamp recording of PIC-induced inward currents in dissociated DRG neurons", "format": "cell-based, mice", "set-up": "from tissue; host or cells: mouse DRG (dissociated small neurons), lumbar spinal cord slices, neck skin of live mice", "procedure": "DRGs were removed aseptically from 4-week old mice and first incubated with collagenase (1.25 mg/ml, Roche)/dispase-II (2.4 units/ml, Roche) at 37° C. for 90 min, then digested with 0.25% trypsin (Cellgro) for 8 min at 37° C., followed by 0.25% trypsin inhibitor (Sigma). Cells were then mechanically dissociated with a flame polished Pasteur pipette in the presence of 0.05% DNAse I (Sigma). DRG cells were plated onto poly-D-lysine and laminin-coated slide chambers (for immunocytochemistry) or glass cover slips (for electrophysiology) and grown in a neurobasal defined medium (with 2% B27 supplement, Invitrogen) in the presence of 5 μM AraC, at 36.5° C., with 5% carbon dioxide.\nSingle-cell RT-PCR was performed as previously described (6). DRG cultures were prepared as above described and grown on glass cover slips coated with poly-D-lysine and laminin. Whole-cell patch clamp recordings were performed at room temperature to measure currents in dissociated DRG neurons with small-sizes using Axopatch-200B amplifier (Axon Instruments, Union City, USA). The patch pipettes were pulled from borosilicate capillaries (Chase Scientific Glass Inc., Rockwood, Calif., USA). When filled with the pipette solution, the resistance of the pipettes was 4˜5 MΩ. The recording chamber (volume 300 μl) was continuously superfused (3-4 ml/min). Series resistance was compensated for (>80%), and leak subtraction was performed. Data were low-pass-filtered at 2 KHz, sampled at 10 KHz. The pClamp8 (Axon Instruments) software was used during experiments and analysis. The pipette solution was composed of (in mM): 126 K-gluconate, 10 NaCl, 1 MgCl2, 10 EGTA, 2 NaATP, 0.1 MgGTP, pH 7.3 with KOH, 295-300 mOsm. Extracellular solution contained (in mM): 140 NaCl, 5 KCl, 2 CaCl2, 1 MgCl2, 10 HEPES, 10 glucose adjusted to pH 7.4 with NaOH, osmolarity 310 mOsm. Inward currents were recorded at a holding potential of −60 mV. In some experiments, following parch-clamp recording, the recorded DRG neurons were collected for single-cell RT-PCR analysis."}, "TLR3 [6]": {"biological_target": "T2, TLR3", "experiment": "Patch clamp recording of sEPSCs in lamina II neurons of spinal cord slices, PIC", "format": "cell-based", "set-up": "from tissue; host or cells: mouse DRG (dissociated small neurons), lumbar spinal cord slices, neck skin of live mice", "conditions": "PIC 100 ng/ml, slices of WT but not Tlr3-/- mice; P<0.05", "procedure": "As we previously reported (18), a portion of the lumbar spinal cord (L4-L5) was removed from mice (4-6 week old) under urethane anesthesia (1.5-2.0 g/kg, i.p.) and kept in pre-oxygenated ice-cold Krebs solution. Transverse slices (600 μm) were cut on a vibrating microslicer. The slices were perfused with Kreb's solution (8-10 ml/min) that was saturated with 95% O2 and 5% CO2 at 36±1° C. for at least 1-3 hours prior to experiment. The Kreb's solution contains (in mM): NaCl 117, KCl 3.6, CaCl2 2.5, MgCl2 1.2, NaH2PO4 1.2, NaHCO3 25, and glucose 11.\nThe whole cell patch-clamp recordings were made from lamina IIo neurons in voltage clamp mode. Patch pipettes were fabricated from thin-walled, borosilicate, glass-capillary tubing (1.5 mm o.d., World Precision Instruments). After establishing the whole-cell configuration, neurons were held at the potential of −70 mV to record sEPSCs. The resistance of a typical patch pipette is 5-10 M. The internal solution contains (in mM): potassium gluconate 135, KCl 5, CaCl2 0.5, MgCl2 2, EGTA 5, HEPES 5, ATP-Mg 5. Membrane currents were amplified with an Axopatch 200B amplifier (Axon Instruments) in voltage-clamp mode. Signals were filtered at 2 kHz and digitized at 5 kHz. Data were stored with a personal computer using pCLAMP 10 software and analyzed with Mini Analysis (Synaptosoft Inc.)."}, "TLR3 [7]": {"biological_target": "T2, TLR3", "experiment": "Scratching after intradermal PIC in naive mice and after AEW dry skin treatment", "format": "in vivo", "set-up": "from tissue; host or cells: mouse DRG (dissociated small neurons), lumbar spinal cord slices, neck skin of live mice", "procedure": "Mice were habituated to the testing environment daily for at least two days before analysis. <ice were shaved at the back of the neck the day before injection. We put mice in small plastic chambers (14×18×12 cm) on an elevated metal mesh floor and allowed 30 min for habituation before examination. We injected 50 μl of pruritic agent intradermally in the nape of the neck and counted the number of scratches every 5 min for 30 min after the injection. A scratch was counted when a mouse lifted its hindpaw to scratch the shaved region and returned the paw to the floor or to the mouth for licking. On the basis of previous reports (4; 5) and our preliminary studies (6), we chose the following doses for pruritic agents: 25 ng for ET-1, 20 μg for 5-HT, 100 μg for HTMT, compound 48/80, and SLIGRL-NH2, 200 μg for chloroquine, 300 μg for trypsin, and 500 μg for histamine and 4-MeHA. We also injected diluted formalin (0.6%, 50 μl) in the nape to induce scratching behaviors. The experimenters were blinded to the genotypes of the animals. We also produced a dry skin model for chronic itch as described in detail previously (7), by painting neck skin with acetone and diethyether (1:1) following by water (AEW) twice a day for 7 days, and examined spontaneous itch by counting the number of scratches for 60 minutes on day 8 and 9."}}}
{"compound": "AS-ODNs: Antisense oligodeoxynucleotides 5′-AACAATTGCTTCAAGTCC-3′ (SEQ ID NO:1) targeting TLR3, synthesized by Invitrogen (DNA, backbone not given here)", "values": [{"measurement": "TLR3 protein and mRNA levels in DRGs", "setting": "TLR3 [1]", "value": "partial knockdown"}, {"measurement": "TLR4 expression in the DRG", "setting": "TLR4", "value": "did not affect"}, {"measurement": "chloroquine-induced scratching", "setting": "TLR3 [2]", "value": "significantly inhibited"}, {"measurement": "compound 48/80-induced scratching", "setting": "TLR3 [2]", "value": "significantly inhibited"}]}
{"compound": "COc1cc(CNC(=O)CCCC/C=C/C(C)C)ccc1O", "note": "[capsaicin]", "values": [{"measurement": "neurons with intracellular Ca2+ increases", "setting": "DRG neurons", "value": 39, "unit": "%"}, {"measurement": "behavior after intrathecal injection", "setting": "TRPV1 [3]", "value": "induced biting, licking and scratching behavior"}, {"measurement": "sEPSC frequency in lamina II neurons", "setting": "TRPV1 [4]", "value": "dramatic increase"}]}
{"compound": "polyribo-inosinic/cytidylic acid [PIC]", "values": [{"measurement": "neurons that respond to PIC", "setting": "TLR3 [5]; PIC 200 ng/ml, small DRG neurons, all also express TLR3 mRNA", "value": "four neurons (out of ten)"}, {"measurement": "inward currents in DRG neurons from Tlr3-/- mice", "setting": "TLR3 [5]; Tlr3-/- mice", "value": "failed to induce inward currents"}, {"measurement": "neurons in which an inward current was elicited", "setting": "TLR3 [5]; dissociated DRG neurons, WT, PIC 100-1000 ng/ml, 5 out of 8", "value": 60, "unit": "%"}, {"measurement": "sEPSC frequency", "setting": "TLR3 [6]", "value": "increased"}, {"measurement": "scratching responses in naive mice", "setting": "TLR3 [7]; intradermal PIC 0.1-100 μg", "value": "failed to induce obvious scratching responses"}, {"measurement": "spontaneous scratching after AEW treatment", "setting": "TLR3 [7]; intradermal PIC, TLR3-dependent, P<0.05", "value": "able to potentiate"}]}
